The subject of data set [1] is LLC-PK1. The experiment in a line: Cytotoxicity against Sus scrofa (pig) LLC-PK1 cells up to 25 uM by neutral red staining. Type of data set: cell-based.
For data set [2], the system named is KB. The experiment in a line: Cytotoxicity against Homo sapiens (human) KB cells up to 25 uM by neutral red staining. The format is functional, cell-based.
The target of data set [3] is T1, DNA topoisomerase 2-alpha (Homo sapiens, UniProt P11388). The experiment in a line: Inhibition of Homo sapiens (human) topoisomerase 2 assessed as decatenation of KDNA up to 25 uM by agarose gel electrophoresis.
Data set [4] relates to SK-OV-3. Briefly: Cytotoxicity against Homo sapiens (human) SKOV3 cells up to 25 uM by neutral red staining. Type of data set: functional, cell-based.
Data set [5] deals with BT-549. The experiment in a line: Cytotoxicity against Homo sapiens (human) BT549 cells up to 25 uM by neutral red staining. The format is functional, cell-based.
The target in data set [6] is T2, DNA topoisomerase 1 (Homo sapiens) (UniProt P11387).
T2 sequence (whole entry): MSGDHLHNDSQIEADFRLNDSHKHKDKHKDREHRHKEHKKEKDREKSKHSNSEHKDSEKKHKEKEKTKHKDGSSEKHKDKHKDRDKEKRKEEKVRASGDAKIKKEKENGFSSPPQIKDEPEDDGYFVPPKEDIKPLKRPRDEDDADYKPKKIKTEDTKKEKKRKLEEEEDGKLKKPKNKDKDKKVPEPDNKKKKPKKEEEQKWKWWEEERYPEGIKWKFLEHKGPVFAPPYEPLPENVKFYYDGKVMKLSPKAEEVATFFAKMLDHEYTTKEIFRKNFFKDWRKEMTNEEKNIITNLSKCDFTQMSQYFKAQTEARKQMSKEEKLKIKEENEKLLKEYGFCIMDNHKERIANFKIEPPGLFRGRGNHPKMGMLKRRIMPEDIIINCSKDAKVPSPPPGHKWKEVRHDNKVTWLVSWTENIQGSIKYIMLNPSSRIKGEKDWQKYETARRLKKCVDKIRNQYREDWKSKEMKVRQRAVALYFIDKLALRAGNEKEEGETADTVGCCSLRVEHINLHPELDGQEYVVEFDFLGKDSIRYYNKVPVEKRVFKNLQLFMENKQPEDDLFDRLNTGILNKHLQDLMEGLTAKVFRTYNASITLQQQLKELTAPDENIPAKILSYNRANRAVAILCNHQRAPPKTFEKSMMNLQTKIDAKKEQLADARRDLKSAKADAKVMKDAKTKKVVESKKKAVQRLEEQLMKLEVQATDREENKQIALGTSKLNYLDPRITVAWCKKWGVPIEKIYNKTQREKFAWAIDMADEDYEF
The experiment in a line: Inhibition of Homo sapiens (human) topoisomerase 1 assessed as production of nicked DNA up to 25 uM by agarose gel electrophoresis.

The target of data set [7] is T2, DNA topoisomerase 1 (Homo sapiens). The experiment in a line: Inhibition of Homo sapiens (human) topoisomerase 1 assessed as relaxation of supercoiled DNA up to 25 uM by agarose gel electrophoresis.
Data set [8] relates to SK-MEL. Briefly: Cytotoxicity against Homo sapiens (human) SK-MEL cells up to 25 uM by neutral red staining. Type of data set: functional, cell-based.
The subject of data set [9] is Vero. The experiment in a line: Cytotoxicity against Chlorocebus aethiops (African green monkey) Vero cells up to 25 uM by neutral red staining. The format is cell-based. Particulars: chlorocebus sabaeus.
The subject of data set [10] is LLC-PK1. The experiment in a line: Cytotoxicity against Sus scrofa (pig) LLC-PK1 cells by neutral red staining. Type of data set: cell-based.
Data set [11] relates to SK-OV-3. The experiment in a line: Cytotoxicity against Homo sapiens (human) SKOV3 cells by neutral red staining. Type of data set: functional, cell-based.
Data set [12] relates to BT-549. The experiment in a line: Cytotoxicity against Homo sapiens (human) BT549 cells by neutral red staining. The format is functional, cell-based.
Data set [13] has as its system SK-MEL. Briefly: Cytotoxicity against Homo sapiens (human) SK-MEL cells by neutral red staining. The format is functional, cell-based.
Data set [14] concerns Vero. The experiment in a line: Cytotoxicity against Chlorocebus aethiops (African green monkey) Vero cells by neutral red staining. Particulars: chlorocebus sabaeus. The format is cell-based.
The test system of data set [15] is KB. Briefly: Cytotoxicity against Homo sapiens (human) KB cells by neutral red staining. Type of data set: functional, cell-based.
Data set [16] deals with T1, DNA topoisomerase 2-alpha. The experiment in a line: Inhibition of Homo sapiens (human) topoisomerase 2 assessed as decatenation of KDNA by agarose gel electrophoresis.

Activity, inhibition and IC50 data for two compounds are collected here from ChEMBL document CHEMBL3046266, “Synthesis of curcumin and ethylcurcumin bioconjugates as potential antitumor agents” (Med Chem Res, 2012).

In general, IC50 refers to the concentration that gives 50% inhibition.

Active and inactive are the calls of the source. The calls are words filed in the database; no cut-off is given here.

T1 sequence (P11388 whole entry): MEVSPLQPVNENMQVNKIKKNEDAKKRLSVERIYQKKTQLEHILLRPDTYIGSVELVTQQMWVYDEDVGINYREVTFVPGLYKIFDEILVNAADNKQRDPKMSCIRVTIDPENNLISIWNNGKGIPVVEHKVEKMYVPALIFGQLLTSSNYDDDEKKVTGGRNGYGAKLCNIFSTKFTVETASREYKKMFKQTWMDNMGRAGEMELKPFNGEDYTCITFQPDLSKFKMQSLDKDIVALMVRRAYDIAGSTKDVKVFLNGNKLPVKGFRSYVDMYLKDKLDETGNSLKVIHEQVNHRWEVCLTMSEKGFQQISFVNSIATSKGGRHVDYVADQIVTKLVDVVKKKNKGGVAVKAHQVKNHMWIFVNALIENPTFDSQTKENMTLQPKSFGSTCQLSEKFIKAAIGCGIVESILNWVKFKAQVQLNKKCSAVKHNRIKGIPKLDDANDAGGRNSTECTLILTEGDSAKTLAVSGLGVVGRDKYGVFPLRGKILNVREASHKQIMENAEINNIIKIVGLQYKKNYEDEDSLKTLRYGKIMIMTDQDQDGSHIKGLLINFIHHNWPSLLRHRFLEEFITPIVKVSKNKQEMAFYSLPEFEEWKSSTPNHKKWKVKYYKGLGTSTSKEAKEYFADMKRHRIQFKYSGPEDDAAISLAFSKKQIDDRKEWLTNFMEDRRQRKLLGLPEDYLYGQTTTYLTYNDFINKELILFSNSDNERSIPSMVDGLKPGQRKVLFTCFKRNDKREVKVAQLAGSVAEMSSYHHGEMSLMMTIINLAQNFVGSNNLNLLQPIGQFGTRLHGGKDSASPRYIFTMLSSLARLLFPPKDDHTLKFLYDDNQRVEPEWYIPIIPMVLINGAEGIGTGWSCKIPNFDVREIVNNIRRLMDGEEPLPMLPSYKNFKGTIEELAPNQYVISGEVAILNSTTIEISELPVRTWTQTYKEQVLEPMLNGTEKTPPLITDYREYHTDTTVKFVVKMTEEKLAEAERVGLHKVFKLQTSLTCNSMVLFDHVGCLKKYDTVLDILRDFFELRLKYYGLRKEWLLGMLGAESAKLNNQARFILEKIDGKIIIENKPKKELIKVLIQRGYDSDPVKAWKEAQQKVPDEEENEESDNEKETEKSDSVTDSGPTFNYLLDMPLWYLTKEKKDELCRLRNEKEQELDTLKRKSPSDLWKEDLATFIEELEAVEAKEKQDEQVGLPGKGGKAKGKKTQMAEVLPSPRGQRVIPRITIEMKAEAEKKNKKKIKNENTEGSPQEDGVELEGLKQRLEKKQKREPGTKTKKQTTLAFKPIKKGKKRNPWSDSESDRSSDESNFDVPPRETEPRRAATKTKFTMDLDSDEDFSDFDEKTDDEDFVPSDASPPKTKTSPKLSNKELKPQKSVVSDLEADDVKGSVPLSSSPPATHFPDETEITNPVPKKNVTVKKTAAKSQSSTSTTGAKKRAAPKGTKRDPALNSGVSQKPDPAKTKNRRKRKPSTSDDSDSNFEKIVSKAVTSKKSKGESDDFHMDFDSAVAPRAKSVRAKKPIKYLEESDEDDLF

In the case of `CCOc1cc(/C=C/C(=O)CC(=O)/C=C/c2ccc(OC(=O)CCNCCN(C)C)c(OCC)c2)ccc1OC(=O)CCNCCN(C)C`, the Activity result in the data set on LLC-PK1 [1] and with Vero [9] was “Non-toxic” each time. Besides, the result with KB [2], in the data set on SK-OV-3 [4], with BT-549 [5] and with SK-MEL [8] was inactive. Further, the inhibition result in data set [3], in data set [6] and in data set [7] was “inactive” in each case.

With `CCOc1cc(/C=C/C(=O)CC(=O)/C=C/c2ccc(OC(=O)CNc3nnc(C)s3)c(OCC)c2)ccc1OC(=O)CNc1nnc(C)s1`, the half-maximal inhibitory concentration (IC50) with LLC-PK1 [10] was found to be 13 µM; with SK-OV-3 [11], 15.8 µM; in the data set with BT-549 [12] it was 12 µM; in the data set on SK-MEL [13], 12.5 µM; in the data set on Vero [14], 11.5 µM; in the data set with KB [15], 11.5 µM. Besides, the IC50 in data set [16] was determined as 2.7 µM. For the same compound, the inhibition entry in data set [6] and in [7] was “inactive” in each case.
